In US12370263B2, “Cyclic dinucleotide derivative based antibody-drug conjugates” (DAIICHI SANKYO COMPANY, LIMITED, priority 2018, dated 2025):
Like-named read-outs stand apart in the source and are kept apart here.

Tests used:
Human STING = Human STING (Homo sapiens, UniProt Q86WV6, G230A/H232R/R293Q/R71H); assay: Reporter gene assay, human STING agonist activity, THP1-Dual cells (HAQ-mutated), IRF pathway; details: 24 hours, 100% = maximum count with ML-RR-CDA·2Na+
Procedure: Human STING agonist activity was evaluated by using THP1-Dual™ cells (HAQ-mutated) (InvivoGen, CA, US), with which the activation of the pathway of interferon regulatory factor-3 (IRF3), which is present in the downstream of the STING pathway, can be confirmed.
Assay was performed as follows. First, a test compound diluted with PBS was aliquoted into a transparent 96-well plate (Corning Incorporated, NY, US) at 20 μL/well. Subsequently, reporter cells suspended in assay buffer (an RPMI1640 medium or DMEM medium containing 10% bovine serum albumin) were added at 180 μL/well (1×10^5 cells/well) to initiate stimulation. After the cells were cultured in an environment at 37° C. and 5% CO2 for 24 hours, the resultant was centrifuged to collect the supernatant. To a white 384-well plate, 6 μL of the supernatant collected was added, and 15 μL of QUANTI-Luc (InvivoGen) solution was added thereto. After the resultant was well mixed together, emission was measured by using a plate reader (PerkinElmer, Inc., MA, US).

[1] = molecular target: T1, HisAviTEV-hSTING (139-342) human AQ-mutated protein (Homo sapiens, UniProt Q86WV6, G230A/H232R/R293Q); assay: Protein thermal shift assay, STING C-terminal binding domain protein; details: test compound final concentration 0.5 mM
T1 construct: made in house; host or cells: E. coli Rosetta 2 (DE3), co-expressed with BirA (1-321)

[2] = molecular target: T2, His-Avi-TEV-mSTING (138-341) mouse wild-type protein (Mus musculus, UniProt Q3TBT3); assay: as above; details: test compound final concentration 0.5 mM
T2 construct: made in house; host or cells: E. coli Rosetta 2 (DE3), co-expressed with BirA (1-321)
Procedure: Each of these expression strains was added to a TB medium containing 100 μg/mL ampicillin, 50 μg/mL streptomycin, and 30 μg/mL kanamycin, cultured at 37° C., then exposed to 100 μM IPTG for inducible expression, and further cultured at 16° C.
The culture solution was centrifuged, and the resulting bacterial cells were suspended in 50 mM HEPES pH 8.0, 500 mM NaCl, 20 mM imidazole, 1 mM DTT, 5% (w/v) glycerol, Complete EDTA free, and then subjected to freeze-thawing. After addition of Lysozyme and DNase I, proteins were extracted by ultrasonic disintegration, and centrifugation was performed and the resulting supernatant was collected. The supernatant obtained was purified by using an AKTA express chromatography system (GE Healthcare, IL, US) with a HisTrap FF column (GE Healthcare), and eluted with buffer (20 mM HEPES pH 7.5, 120 mM NaCl, 20% Glycerol, 0.8 mM DTT) through a Superdex 200 16/60 column (GE Healthcare). […] The protein concentrations were measured by using a NanoDrop2000 (Thermo Fisher Scientific, MA, US), and the proteins were cryopreserved at −80° C. until use.
The binding ability of each compound to the STING C-terminal binding domain proteins was evaluated by protein thermal shift assay, which uses the elevation of thermal denaturation temperature of protein as an index.
Specifically, 3 μL of a test compound (final concentration: 0.5 mM), 3 μL of SYPRO Orange Protein Gel Stain (Thermo Fisher Scientific) (final concentration: 20-fold), and 6 μL of a STING protein were mixed with use of assay buffer (20 mM Tris-HCl pH 7.5, 120 mM NaCl) in a 384-well real-time PCR plate, and mixed together with a plate shaker. With a real-time PCR system (Thermo Fisher Scientific), the temperature was increased from 25° C. to 95° C. at a rate of 0.03° C./sec, and the thermal denaturation temperature of the protein was measured by using fluorescence emitted from SYPRO Orange as an index. From the measurement acquired, Tm (the midpoint of the unfolding transition) (° C.) was determined as a temperature at which the increase rate of fluorescence intensity was maximized by using the analysis software Protein Thermal Shift software (Thermo Fisher Scientific). The Tm value for a well with no compound was subtracted from the Tm value for each test compound to calculate the Tm shift caused by the compound as ΔTm (° C.).

[3] = molecular target: T3, HisAviTEV-hSTING (139-342) human REF-mutated protein (Homo sapiens, UniProt Q86WV6); assay: as above; details: test compound final concentration 0.5 mM
T3 construct: made in house; host or cells: E. coli Rosetta 2 (DE3), co-expressed with BirA (1-321)

[4] = molecular target: T4, HisAviTEV-hSTING (139-342) human wild-type protein (Homo sapiens, UniProt Q86WV6, H232R); assay: as above; details: test compound final concentration 0.5 mM
T4 construct: made in house; host or cells: E. coli Rosetta 2 (DE3), co-expressed with BirA (1-321)

[5] = THP1-Dual cells IRF EC50, THP1-Dual cells (HAQ-mutated)

Sequence of Human STING (Q86WV6 whole entry R71H/G230A/H232R/R293Q, the tested form may be a part): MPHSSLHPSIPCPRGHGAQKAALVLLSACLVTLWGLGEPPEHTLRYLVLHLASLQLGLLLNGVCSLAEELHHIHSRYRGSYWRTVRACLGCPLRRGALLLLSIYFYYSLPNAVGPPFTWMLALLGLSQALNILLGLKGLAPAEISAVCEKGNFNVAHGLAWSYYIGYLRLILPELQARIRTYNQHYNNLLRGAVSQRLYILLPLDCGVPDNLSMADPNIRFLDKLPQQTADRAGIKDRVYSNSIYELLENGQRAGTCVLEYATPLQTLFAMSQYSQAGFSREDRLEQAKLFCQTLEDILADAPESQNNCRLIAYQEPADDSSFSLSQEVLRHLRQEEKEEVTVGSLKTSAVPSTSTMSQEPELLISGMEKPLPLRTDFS
T3 sequence (Q86WV6 with tags, fused parts or gaps, change not shown): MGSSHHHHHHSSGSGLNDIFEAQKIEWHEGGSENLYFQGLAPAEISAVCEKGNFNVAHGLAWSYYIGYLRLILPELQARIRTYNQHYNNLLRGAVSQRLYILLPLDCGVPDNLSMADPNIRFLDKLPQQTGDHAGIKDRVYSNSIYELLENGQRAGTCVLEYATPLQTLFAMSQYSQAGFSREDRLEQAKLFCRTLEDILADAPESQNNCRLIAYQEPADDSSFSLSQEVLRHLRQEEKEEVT
T1 sequence (Q86WV6 with tags, fused parts or gaps G230A/H232R/R293Q): as the sequence (Q86WV6 with tags, fused parts or gaps, change not shown) above, with G131A, H133R, R194Q counted along it
T4 sequence (Q86WV6 with tags, fused parts or gaps H232R): as the sequence (Q86WV6 with tags, fused parts or gaps, change not shown) above, with H133R counted along it
T2 sequence (Q3TBT3 with tags, fused parts or gaps limits assumed): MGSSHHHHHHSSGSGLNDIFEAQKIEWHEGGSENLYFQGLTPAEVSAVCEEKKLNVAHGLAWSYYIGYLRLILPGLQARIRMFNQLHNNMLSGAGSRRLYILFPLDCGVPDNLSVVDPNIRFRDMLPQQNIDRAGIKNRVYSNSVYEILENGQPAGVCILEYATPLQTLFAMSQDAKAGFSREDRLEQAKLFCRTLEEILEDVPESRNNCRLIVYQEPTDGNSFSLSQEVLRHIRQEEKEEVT

Row | SMILES | EC50 (Human STING; read-out: THP1-Dual cells IRF EC50, THP1-Dual cells (HAQ-mutated)) | ΔTm Hu-AQ [1] | ΔTm Ms-WT [2] | ΔTm Hu-REF [3] | ΔTm Hu-WT [4] | EC50 (Human STING; [5]) | ΔTm at 500 µM [1] | ΔTm at 500 µM [2] | ΔTm at 500 µM [3] | ΔTm at 500 µM [4]
1 | O=P1(S)OC[C@H]2O[C@@H](n3cc4c5c(ncnc53)NCCC4)[C@H](O)[C@@H]2OP(=O)(S)OC[C@H]2O[C@@H](n3cnc4c(CO)ncnc43)[C@H](O1)[C@@H]2O (single isomer, unassigned) [17b] |  | 10.4 °C | 12.6 °C | 2.2 °C | 7.4 °C | 1 µM |  |  |  | 
2 | NCCNc1nc(N)c2ncn([C@@H]3O[C@@H]4COP(=O)(S)O[C@H]5[C@@H](O)[C@H](n6cc7c8c(ncnc86)NCCC7)O[C@@H]5COP(=O)(S)O[C@@H]3[C@@H]4O)c2n1 (single isomer, unassigned) [8a] |  |  |  |  |  | 3.1 µM | 10.8 °C | 11.5 °C | 2.8 °C | 7.6 °C
3 | O=c1[nH]cnc2c1ncn2[C@@H]1O[C@@H]2COP(=O)(S)O[C@H]3[C@@H](O)[C@H](n4cc5c6c(ncnc64)NCCC5)O[C@@H]3COP(=O)(S)O[C@@H]1[C@@H]2O (single isomer, unassigned) [25a] |  |  |  |  |  | 1.3 µM | 15 °C | 16 °C | 6.2 °C | 11.4 °C
4 | Nc1ncnc2c1ncn2[C@@H]1O[C@@H]2COP(=O)(S)O[C@H]3[C@@H](O)[C@H](n4cc5c6c(ncnc64)SCCC5)O[C@@H]3COP(=O)(S)O[C@@H]1[C@@H]2O (single isomer, unassigned) [23a] |  |  |  |  |  | 2.6 µM | 12.2 °C | 15.6 °C | 4.2 °C | 9.7 °C
5 | O=c1c2ncn([C@@H]3O[C@@H]4COP(=O)(S)O[C@H]5[C@@H](O)[C@H](n6cc7c8c(ncnc86)NCCC7)O[C@@H]5COP(=O)(S)O[C@@H]3[C@@H]4O)c2ncn1CCCO (single isomer, unassigned) [26b] |  |  |  |  |  | 1.2 µM | 11.5 °C | 14.1 °C | 3.9 °C | 9.1 °C
6 | O=c1c2ncn([C@@H]3O[C@@H]4COP(=O)(S)O[C@H]5[C@@H](F)[C@H](n6cc7c8c(ncnc86)NCCC7)O[C@@H]5COP(=O)(S)O[C@@H]3[C@@H]4O)c2ncn1CCO (single isomer, unassigned) [34a] |  |  |  |  |  | 0.2 µM | 18.9 °C | 20.3 °C | 8.8 °C | 14.7 °C
7 | O=P1(S)OC[C@H]2O[C@@H](n3cc4c5c(ncnc53)NCCC4)[C@H](O)[C@@H]2OP(=O)(S)OC[C@H]2O[C@@H](n3cnc4c(CO)ncnc43)[C@H](O1)[C@@H]2O (single isomer, unassigned) [17a] |  |  |  |  |  | 4.4 µM | 10.7 °C | 12.6 °C | 2.7 °C | 7.3 °C
8 | Nc1nc(CO)nc2c1ncn2[C@@H]1O[C@@H]2COP(=O)(S)O[C@H]3[C@@H](O)[C@H](n4cc5c6c(ncnc64)NCCC5)O[C@@H]3COP(=O)(S)O[C@@H]1[C@@H]2O (single isomer, unassigned) [12a] |  |  |  |  |  |  | 9.6 °C | 11.9 °C | 3 °C | 8 °C
9 | Nc1ncnc2c1ncn2[C@@H]1O[C@@H]2COP(=O)(S)O[C@H]3[C@@H](O)[C@H](n4cc5c6c(ncnc64)OCCC5)O[C@@H]3COP(=O)(S)O[C@@H]1[C@@H]2O (single isomer, unassigned) [20a] |  |  |  |  |  |  | 9.7 °C | 12.4 °C | 3.7 °C | 7.5 °C
10 | Nc1nc2c(ncn2[C@@H]2O[C@@H]3COP(=O)(S)O[C@H]4[C@@H](O)[C@H](n5cc6c7c(ncnc75)NCCC6)O[C@@H]4COP(=O)(S)O[C@@H]2[C@@H]3O)c(=O)[nH]1 (single isomer, unassigned) [4b] |  | 13.1 °C | 14.9 °C | 3.5 °C | 9.8 °C | 1.5 µM |  |  |  | 
11 | Nc1ncnc2c1ncn2[C@@H]1O[C@@H]2COP(=O)(S)O[C@H]3[C@@H](O)[C@H](n4cc5c6c(ncnc64)NCCC5)O[C@@H]3COP(=O)(S)O[C@@H]1[C@@H]2O (single isomer, unassigned) [1a] |  |  |  |  |  | 5.9 µM | 12 °C | 14.3 °C | 3.4 °C | 8.4 °C

The remaining lines, values ahead:

Row | EC50 (Human STING; read-out: THP1-Dual cells IRF EC50, THP1-Dual cells (HAQ-mutated)) | ΔTm Hu-AQ [1] | ΔTm Ms-WT [2] | ΔTm Hu-REF [3] | ΔTm Hu-WT [4] | EC50 (Human STING; [5]) | ΔTm at 500 µM [1] | ΔTm at 500 µM [2] | ΔTm at 500 µM [3] | ΔTm at 500 µM [4] | SMILES
12 | 2 µM | 11.8 °C | 19.3 °C | 5.5 °C | 10.1 °C |  |  |  |  |  | O=C(CO)NCCn1cnc2c(ncn2[C@@H]2O[C@@H]3COP(=O)(S)O[C@H]4[C@@H](F)[C@H](n5cc6c7c(ncnc75)NCCC6)O[C@@H]4COP(=O)(S)O[C@@H]2[C@@H]3O)c1=O (single isomer, unassigned) [36b]
13 |  | 9.1 °C | 12.1 °C | 3.1 °C | 7.5 °C | 3.1 µM |  |  |  |  | NCCNc1nc(N)c2ncn([C@@H]3O[C@@H]4COP(=O)(S)O[C@H]5[C@@H](F)[C@H](n6cc7c8c(ncnc86)NCCC7)O[C@@H]5COP(=O)(S)O[C@@H]3[C@@H]4F)c2n1 (single isomer, unassigned) [45b]
14 |  |  |  |  |  | 2 µM | 13.3 °C | 15.4 °C | 5.8 °C | 10.8 °C | O=C(CO)NCCn1cnc2c(ncn2[C@@H]2O[C@@H]3COP(=O)(S)O[C@H]4[C@@H](F)[C@H](n5cc6c7c(ncnc75)NCCC6)O[C@@H]4COP(=O)(S)O[C@@H]2[C@@H]3O)c1=O (single isomer, unassigned) [36a]
15 |  | 7.4 °C | 10.6 °C | 1.4 °C | 5.3 °C | 4.7 µM |  |  |  |  | NCCNc1nc(N)c2ncn([C@@H]3O[C@@H]4COP(=O)(S)O[C@H]5[C@@H](O)[C@H](n6cc7c8c(ncnc86)NCCC7)O[C@@H]5COP(=O)(S)O[C@@H]3[C@@H]4F)c2n1 (single isomer, unassigned) [42b]
16 |  |  |  |  |  | 6 µM | 11.6 °C | 14.3 °C | 5.4 °C | 9.6 °C | O=c1c2ncn([C@@H]3O[C@@H]4COP(=O)(S)O[C@H]5[C@@H](F)[C@H](n6cc7c8c(ncnc86)NCCC7)O[C@@H]5COP(=O)(O)O[C@@H]3[C@@H]4O)c2ncn1CCO (stereo partly drawn) [53a, Disodium (5R,7R,8R,12aR,14R,15R,15aR,16R)-15-fluoro-16-hydroxy-7-[1-(2-hydroxyethyl)-6-oxo-1,6-dihydro-9H-purin-9-yl]-2,10-dioxo-2-sulfide-14-(6,7,8,9-tetrahydro-2H-2,3,5,6-tetraazabenzo[cd]azulen-2-yl)octahydro-2H,10H,12H-5,8-methano-2λ^5,10λ^5-furo[3,2-1][1,3,6,9,11,2,10]pentaoxadiphosphacyclotetradecin-10-olate]
17 |  |  |  |  |  | 0.41 µM | 16.1 °C | 19.3 °C | 6.6 °C | 12.6 °C | NCCn1cnc2c(ncn2[C@@H]2O[C@@H]3COP(=O)(S)O[C@H]4[C@@H](F)[C@H](n5cc6c7c(ncnc75)SCCC6)O[C@@H]4COP(=O)(S)O[C@@H]2[C@@H]3O)c1=O (single isomer, unassigned) [49b]
18 |  |  |  |  |  | 0.31 µM | 13.5 °C | 14.3 °C | 5.6 °C | 10.9 °C | O=c1c2ncn([C@@H]3O[C@@H]4COP(=O)(O)O[C@H]5[C@@H](F)[C@H](n6cc7c8c(ncnc86)NCCC7)O[C@@H]5COP(=O)(S)O[C@@H]3[C@@H]4O)c2ncn1CCO (single isomer, unassigned) [52a]
19 |  |  |  |  |  | 1.2 µM | 10.8 °C | 12.3 °C | 4.4 °C | 8.9 °C | NCCNc1nc(N)c2ncn([C@@H]3O[C@@H]4COP(=O)(S)O[C@H]5[C@@H](F)[C@H](n6cc7c8c(ncnc86)NCCC7)O[C@@H]5COP(=O)(S)O[C@@H]3[C@@H]4F)c2n1 (single isomer, unassigned) [45a]
